Entries after “also recorded” stand apart in the source; their conditions may differ.
Target: immobilized enzyme CAL-A and free enzyme CAL-A (Moesziomyces aphidis, UniProt W3VKA4)
Assay: Influence of organic solvents, metal ions and surfactants on enzyme activity
Type: biochemical, Candida antarctica
Conditions: for effect of organic solvent on hydrolysis activity: 10% (v/v) and 20% (v/v) solvent
Excerpt: Add 10 mmol/L, 5 mmol/L, l0 mmol/L K+, Al^3+, Fe^2+, Fe3+, Ca^2+, Mg^2+, Mn^2+, Zn^2+, Ba^2+, Na^2+ and other 10 kinds of metal ion solutions to measure the enzyme activity respectively, take the activity of the untreated immobilized enzyme CAL-A and free enzyme CAL-A enzyme as 100%, analyze the influence of metal ions on the enzyme activity. (FIG. 4-G, FIG. 4-H, FIG. 4-I).
Add 10% (v/v) and 20% (v/v) methanol, ethanol, acetonitrile, acetone, n-butanol, isooctane, isopropanol, n-hexane, n-heptane, petroleum ether, tert-butyl Alcohol, glacial acetic acid, ethyl acetate and other 13 kinds of organic solvent solutions respectively, measure the enzyme activity. Take the untreated immobilized enzyme CAL-A and free enzyme CAL-A enzyme activity as 100%, analyze the influence of organic solvent on the enzyme activity.
Add 0.0001%, 0.0005%, 0.001% SDS, TritionX-100, Tween-80, Tween-20, EDTA and other 5 kinds of surfactant solutions respectively, measure the enzyme activity, take the untreated immobilized enzyme CAL-A and free enzyme CAL-A enzyme activity as 100%, analyze the influence of surfactant on enzyme activity.

immobilized enzyme CAL-A and free enzyme CAL-A, sequence (W3VKA4 22-462): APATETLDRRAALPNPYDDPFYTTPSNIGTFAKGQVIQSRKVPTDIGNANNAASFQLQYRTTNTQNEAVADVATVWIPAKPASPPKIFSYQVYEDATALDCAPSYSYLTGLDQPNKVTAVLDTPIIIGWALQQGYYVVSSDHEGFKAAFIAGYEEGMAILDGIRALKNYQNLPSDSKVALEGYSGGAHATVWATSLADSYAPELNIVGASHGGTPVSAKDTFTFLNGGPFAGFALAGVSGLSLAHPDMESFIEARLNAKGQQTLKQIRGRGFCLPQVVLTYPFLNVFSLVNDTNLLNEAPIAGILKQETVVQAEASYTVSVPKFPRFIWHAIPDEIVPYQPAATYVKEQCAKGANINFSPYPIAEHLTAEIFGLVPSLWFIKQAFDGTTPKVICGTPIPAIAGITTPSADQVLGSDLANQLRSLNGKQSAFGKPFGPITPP

Row | Compound | effect of organic solvent on hydrolysis activity (untreated enzyme = 100%) | further results
1 | O=C(O)CN(CCN(CC(=O)O)CC(=O)O)CC(=O)O [EDTA] |  | effect of surfactant on lipase activity (0.0005% EDTA): activating effect; also recorded: activate; effect of surfactant on lipase activity (0.001% EDTA): inhibitory effect; also recorded: inhibit
2 | O=S(=O)([O-])[O-].[Fe+2] [Fe^2+] |  | effect of metal ion on hydrolysis of immobilized enzymes (metal ion solutions 1, 5, 10 mmol/L, untreated enzyme = 100%): activate
3 | CC(=O)O [acetic acid] | significantly inhibit; also recorded: obvious inhibitory effects | 
4 | CCO [ethanol] | significantly inhibit; also recorded: obvious inhibitory effects | 
5 | CCOC(C)=O [ethyl acetate] | activate; also recorded: activation effects | 
6 | CCCCCC [n-hexane] | significantly inhibit; also recorded: obvious inhibitory effects | 
7 | CC(C)(C)O [tert-butanol] | activate; also recorded: activation effects | 
8 | n-butanol | activate; also recorded: activation effects | 
